From US12221494B2, “Short synthetic peptides and their uses for treating retinal degenerative diseases and/or tissue injuries” (MacKay Memorial Hospital, priority 2019, dated 2025)
Ends that are not written are not given here.

Experiments:
survivin mRNA = experiment: Real-time qPCR of survivin mRNA in C2C12 cells; format: cell-based, mouse; settings: for survivin mRNA induction compared to solvent control / survivin mRNA induction, in words: C2C12 cells in low serum media, 20 μM peptide, 6 h
Protocol: Total RNA was extracted from cells using TRIzol (Invitrogen). Synthesis of cDNA was performed with 1 μg of total RNA at 50° C. for 50 min using oligo(dT) primers and reverse transcriptase (Superscript III; Invitrogen). Briefly, quantification of cDNA was performed in the LightCycler (Roche, Mannheim, Germany) using the DNA Master SYBR Green I kit (Roche) with the following cycling conditions: initial denaturation at 95° C. for 10 min, followed by 40 cycles at 95° C. for 10 s, 60° C. for 10 s, and 72° C. for 10 s and a 5-min terminal incubation at 72° C. The data were calculated with AACt. The expression was then normalized against the expression of glyceraldehyde-3-phosphate dehydrogenase (GAPDH). The PCR primers were mouse Survivin sense, 5′-[…]-3′ (SEQ ID NO: 27), anti-sense, 5′-[…]-3′ (SEQ ID NO: 28) (accession number: NM_001012273.1; PCR product: 136 bp); mouse GAPDH sense, 5′-[…]-3′ (SEQ ID NO: 29), anti-sense, 5′-[…]-3′ (SEQ ID NO: 30) (NM_001289726.1; 149 bp). For analysis rabbit inflammatory gene expression, The PCR primers were rabbit TNF-αsense, 5′-[…]-3′ (SEQ ID NO: 31), anti-sense, 5′-[…]-3′ (SEQ ID NO: 32) (accession number: NM 001082263.1); rabbit IL-1βsense, 5′-[…]-3′(SEQ ID NO: 33), anti-sense, 5′-[…]-3′ (SEQ ID NO: 34) (NM 001082201.1); rabbit GAPDH sense, 5′-[…]-3′ (SEQ ID NO: 35), anti-sense, 5′-[…]-3′ (SEQ ID NO: 36) (accession number:NM 001082253.1). The cycle threshold (Ct) values of the PCR product and a GAPDH (Glyceraldehyde 3-phosphate dehydrogenase) control mRNA were used to calculate relative quantities of mRNA.
Similar to the approach in Example 1.2.1, the expression level of survivin mRNA in C2C12 cells was used as an indicator for the function of the 6-mer variants in Tables 3 to 5. Briefly, C2C12 cells in low serum media were treated with 20 μM the 6-mer variants for 6 h. […] The results also confirmed that alanine substation at the glutamic acid (E) residues would severely impair the 6-mer activity.

[1] = tested on: Sprague-Dawley rats, retinal ischemia/reperfusion (I/R) injury; experiment: TUNEL staining of I/R-injured rat retina (20 h); format: in vivo; settings: for Number of TUNEL-positive cells in retina: subconjunctival injection 1 mM 4 h before I/R, 20 hours after I/R injury, Vehicle + I/R 27.2 ± 2.7; for I/R-induced retinal cell apoptosis (TUNEL staining), in words: subconjunctival injection prior to I/R, 20 h reperfusion
Protocol: Experimental procedures were approved by the Mackay Memorial Hospital Review Board (Taiwan, R.O.C.). All surgeries were performed under aseptic conditions. Adult 10-week-old male Sprague-Dawley rats (initial body weight=312±11 g) were anesthetized by an intraperitoneal injection of xylazine (10 mg/kg). Peptide was dissolved in 0.85% normal saline to 1 mM and delivered by the subconjunctival injection of 100 μL peptide through a 31-Gneedle with a micro-syringe before the induction of I/R. Normal saline was as a vehicle control. Rat I/R was performed after peptide or vehicle injection for 4 h. Pupils were dilated with 0.5% tropicamide and 0.5% phenylephrine. Body temperature was maintained at 37° C. using a heating blanket After dilation of the pupil, the anterior chamber of the right eye was cannulated with a 27-gauge needle connected to a physiological saline reservoir. The intraocular pressure (IOP) was raised to 110 mmHg by keeping the reservoir at 150 cm above the eye, and retinal ischemia was confirmed by observing whitening of the iris and the loss of the red reflex of the retina. After 90 min of ischemia, the cannulating needle was withdrawn and the IOP was returned to normal pressure, resulting in recovery of the blood supply from the retinal artery and reperfusion injury induced. The reperfusion was evident by the return of the red reflex. Corneal analgesia was achieved using 1 or 2 drops of 0.4% oxybuprocaine hydrochloride, and Ofloxacin ophthalmic gel (0.3%) was applied topically to the eye before and after the procedure. Only the right eye was used in all experiments. A sham procedure was performed at left eye served as an intra-animal control.
After I/R for 20 h, rats (n=6 in each group) were euthanized by an overdose of pentobarbital. Enucleated eyeballs were fixed in 4% PFA for 24 h at 4° C. Fixed retinal tissues were embedded in paraffin. To identify apoptosis of retinal cells, 5 μm sections thick cut through the optic disc, de-paraffinized, rehydrated, incubatedwith 20 μg/mL proteinase K for 10 min, and immunofluorescence staining of apoptotic cells was performed using a terminal deoxynucleotidyl transferase(TdT)-mediated dUTP nick-end labeling (TUNEL)-based kit (Roche Molecular Biochemicals, Indianapolis, IN) according to the manufacturer's instructions. Nuclei were located by counterstaining with Hoechst 33258 for 7 min Sections were observed under an epifluorescence microscope (Zeiss Axioplan 2 imaging; Zeiss, Oberkochen, Germany) equipped with a charge-coupled device (CCD) camera (Zeiss AxioCam HRm, Zeiss) (×400, 6 fields/sample), and quantification was performed using Axiovert software (Zeiss AxioVision Release 4.8.2, Zeiss). Three sections per eye were averaged and the mean of six eyes was recorded as the representative value for each group.
In this example, the neuroprotective effect of the 6-mer variant peptides on neural retina cells and retinal capillary system was investigated using a rat model of I/R injury described in the “Material and Methods” section. Briefly, 6-mer variant peptide (1 mM, 120 μl) was injected into the subconjunctival space of Sprague-Dawley rats for 4 h before the induction of I/R. Then, I/R injury was induced in rat retinas by increasing the intraocular pressure (IOP) in the eye to 110 mmHg for 90 min, followed by 20 h of reperfusion. Subsequently, the level of retinal cell apoptosis was evaluated using TUNEL staining. In addition, the retinal morphology was analyzed with H&E staining 14 days after the I/R injury. Results are summarized in FIGS. 6 to 10, and Tables 6 to 9.

Compound	survivin mRNA induction compared to solvent control (survivin mRNA)	survivin mRNA induction, in words (survivin mRNA)	further results
O=[N+]([O-])c1ccc2c(c1)S(=O)(=O)C=C2 [STAT3 inhibitor V, reference compound]			survivin mRNA expression induced by the 6-mer dS in cells pretreated with STAT3 inhibitor (survivin mRNA; C2C12 cells, 2.6-fold without inhibitor): 1.3 fold
NH2-Ser-Leu-Asn-Ala-Glu-Gln-COOH (SLNAEQ; not fully specified (N-terminus, C-terminus); printed as NH2-Ser-Leu-Asn-Ala-Glu-Gln-COOH) [6-mer Gn]	1.5 fold		
NH2-Ser-Leu-Gly-Gly-Glu-Gln-COOH (SLGGEQ; not fully specified (N-terminus, C-terminus); printed as NH2-Ser-Leu-Gly-Gly-Glu-Gln-COOH) [6-mer Ag]	1.5 fold		
NH2-Ser-Leu-Ala-Ala-Glu-Gln-COOH (SLAAEQ; not fully specified (N-terminus, C-terminus); printed as NH2-Ser-Leu-Ala-Ala-Glu-Gln-COOH) [6-mer Ga]	1.6 fold		
NH2-Ser-Ala-Gly-Ala-Glu-Gln-COOH (SAGAEQ; not fully specified (N-terminus, C-terminus); printed as NH2-Ser-Ala-Gly-Ala-Glu-Gln-COOH) [6-mer La]	1.5 fold		
NH2-Ser-Leu-Gly-Ala-Asp-Gln-COOH (SLGADQ; not fully specified (N-terminus, C-terminus); printed as NH2-Ser-Leu-Gly-Ala-Asp-Gln-COOH) [6-mer Ed]		severely impaired the survivin mRNA induction	
NH2-Ser-Leu-Gly-Ala-Glu-(D-Gln)-COOH (SLGAEQ; HELM PEPTIDE1{S.L.G.A.E.[dQ]}$$$$V2.0; SMILES CC(C)C[C@H](NC(=O)[C@@H](N)CO)C(=O)NCC(=O)N[C@@H](C)C(=O)N[C@@H](CCC(=O)O)C(=O)N[C@H](CCC(N)=O)C(=O)O) [6-mer dQ]		hamper the survivin gene induction activity significantly	
NH2-Ser-Leu-Gly-Ile-Glu-Gln-COOH (SLGIEQ; not fully specified (N-terminus, C-terminus); printed as NH2-Ser-Leu-Gly-Ile-Glu-Gln-COOH) [6-mer Ai]		severely impaired the survivin mRNA induction	
NH2-Ser-Ile-Gly-Ala-Glu-Gln-COOH (SIGAEQ; not fully specified (N-terminus, C-terminus); printed as NH2-Ser-Ile-Gly-Ala-Glu-Gln-COOH) [6-mer Li]	2.1 fold		Number of TUNEL-positive cells in retina [1]: 9.8 ± 1.4 /200 μm; I/R-induced retinal cell apoptosis (TUNEL staining), in words [1]: reduced the retinal cell apoptosis induced by I/R
NH2-Ser-Leu-Gly-Ala-(D-Glu)-Gln-COOH (SLGAEQ; HELM PEPTIDE1{S.L.G.A.[dE].Q}$$$$V2.0; SMILES CC(C)C[C@H](NC(=O)[C@@H](N)CO)C(=O)NCC(=O)N[C@@H](C)C(=O)N[C@H](CCC(=O)O)C(=O)N[C@@H](CCC(N)=O)C(=O)O) [6-mer dE]		moderate induction on survivin mRNA level	
NH2-Ser-Leu-Gly-Ser-Glu-Gln-COOH (SLGSEQ; not fully specified (N-terminus, C-terminus); printed as NH2-Ser-Leu-Gly-Ser-Glu-Gln-COOH) [6-mer As]		severely impaired the survivin mRNA induction	
NH2-Ser-Leu-Gly-Glu-Glu-Gln-COOH (SLGEEQ; not fully specified (N-terminus, C-terminus); printed as NH2-Ser-Leu-Gly-Glu-Glu-Gln-COOH) [6-mer Ae]	1.5 fold		
NH2-Ser-(D-Leu)-Gly-Ala-Glu-Gln-COOH (SLGAEQ; HELM PEPTIDE1{S.[dL].G.A.E.Q}$$$$V2.0; SMILES CC(C)C[C@@H](NC(=O)[C@@H](N)CO)C(=O)NCC(=O)N[C@@H](C)C(=O)N[C@@H](CCC(=O)O)C(=O)N[C@@H](CCC(N)=O)C(=O)O) [6-mer dL]		hamper the survivin gene induction activity significantly	
NH2-Ser-Leu-Gly-Ala-Glu-Ala-COOH (SLGAEA; not fully specified (N-terminus, C-terminus); printed as NH2-Ser-Leu-Gly-Ala-Glu-Ala-COOH) [6-mer Qa]	1.6 fold		
NH2-Ser-Leu-Gly-Ala-Glu-Asn-COOH (SLGAEN; not fully specified (N-terminus, C-terminus); printed as NH2-Ser-Leu-Gly-Ala-Glu-Asn-COOH) [6-mer Qn]	2.1 fold		Number of TUNEL-positive cells in retina [1]: 12.5 ± 0.89 /200 μm; I/R-induced retinal cell apoptosis (TUNEL staining), in words [1]: reduced the retinal cell apoptosis induced by I/R
